Reference: ChEMBL document CHEMBL4376825, “Dual Inhibitors of Human DNA Topoisomerase II and Other Cancer-Related Targets” (J Med Chem, 2020)
Residues, ends and D or L forms follow the SMILES beside them. *: point of attachment. Cbz = O=C(OCc1ccccc1)*

Legend:
[1] = Cytotoxicity against […] cells after 4 hrs by MTT assay; assay type: functional, cell-based
[2] = Selectivity ratio of IC50 for […] cells to IC50 for human RPMI8226/S cells; assay type: functional
[3] = Cytotoxicity against human RPMI8226/S cells after 4 hrs by MTT assay; assay type: functional, cell-based
[4] = test system: P388; assay: Antitumor activity against mouse P388 cells implanted in ip dosed B6D2F1 mouse assessed as T/C value administered for 4 days; assay type: functional
[5] = Half life in human; assay type: ADME
[6] = test system: DLD-1; assay: Antiproliferative activity against human DLD1 cells after 72 hrs by sulforhodamine B assay; assay type: functional, cell-based; settings: DLD-1, 72 h
[7] = test system: U-87 MG; assay: Antiproliferative activity against human U87 cells after 72 hrs by sulforhodamine B assay; assay type: functional, cell-based, U-87MG ATCC
[8] = test system: HeLa; assay: Antiproliferative activity against human HeLa cells after 72 hrs by sulforhodamine B assay; assay type: functional, cell-based
[9] = test system: Bel-7402; assay: Antiproliferative activity against human Bel7402 cells after 72 hrs by sulforhodamine B assay; assay type: functional, cell-based; settings: Bel-7402, 72 h
[10] = test system: Proteasome; assay: Inhibition of proteasome in human K562 cells assessed as half life of etoposide-induced Topoisomerase 2alpha-DNA complexes at 50 uM incubated for 2 hrs followed by etoposide washout and measured up to 120 mins by TARDIS assay (reference value: 0.5 hrs); assay type: subcellular
[11] = test system: Proteasome; assay: Inhibition of proteasome in human K562 cells assessed as half life of mitoxantrone-induced Topoisomerase 2alpha-DNA complexes by measuring half life of complex at 50 uM incubated for 2 hrs followed by mitoxantrone washout and measured up to […] by TARDIS assay (reference value: 10 hrs); assay type: subcellular

Compound	IC50 [1] [nM]	Ratio IC50 [2]	IC50 [3] [nM]	T/C [4] [%]	further results
N[C@H]1CCN(c2c(F)cc3c(=O)c(C(=O)O)cn4c3c2Oc2c-4ccc3c2ccc2ccccc23)C1	2800	4	690		
COc1ccc2c(ccc3c2c2c(NCCCN(C)C)ncc(C)c2n3C)c1				150	
CC[C@@]1(O)C(=O)OCc2c1cc1n(c2=O)Cc2cc3ccccc3nc2-1 [CAMPTOTHECIN]					half-life [5]: 1.18 to 1.5 h
CCCCC(C#CC(=O)OC)O/C=C/C(=O)OC (stereo not given)					IC50 [6]: 850 nM; IC50 [7]: 4900 nM
Cc1cnc(NCCCN(C)C)c2c1[nH]c1ccc3cc(O)ccc3c12 [INTOPLICINE]				270	
Cc1cnc(NCCCN(C)C)c2c1[nH]c1ccc3ccccc3c12				150	
COc1cccc2c1C(=O)c1c(O)c3c(c(O)c1C2=O)C[C@@](O)(C(=O)CO)C[C@@H]3O[C@H]1C[C@H](N)[C@H](O)[C@H](C)O1 [DOXORUBICIN]	320	8.7	37		half-life [5]: 0.0667 h
COc1ccc(O)c(C(=O)c2cnc3[nH]c4ccccc4c3c2)c1					IC50 [8]: 60 nM; IC50 [9]: 830 nM
CC(C)C[C@@H](C=O)NC(=O)[C@H](CC(C)C)NC(=O)[C@H](CC(C)C)NC(=O)OCc1ccccc1 (Cbz-Leu-Leu-Leu-aldehyde)					T1/2 [10]: > 2 h; T1/2 [11]: > 24 h
N[C@@H]1CCN(c2c(F)cc3c(=O)c(C(=O)O)cn4c3c2Oc2c-4ccc3c2ccc2ccccc23)C1	500	1.6	320		
